Source: patent US20080194585A1, “Fungicidal Pyrazine Derivatives” (priority 2005, published 2008)
Marks after values point to notes of the source that are not given here.

Key:
Details in all cases: 100 = 100% disease control, 0 = no control
Septoria tritici = test: Test J: wheat leaf blotch, preventive spray on wheat seedlings; format: in vivo
Description: A dash (-) indicates no test results.

Sclerotinia sclerotiorum = test: Test C: cucumber white mold, preventive spray on cucumber seedlings
[1] = system: Puccinia recondita f. sp. tritici; test: Test K: wheat leaf rust, preventive spray on wheat seedlings
Pythium aphanidermatum = test: Test A: bluegrass pythium blight, preventive spray on bluegrass seedlings
Septoria nodorum = test: Test H: wheat glum blotch, preventive spray on wheat seedlings
Description: (the causal agent of wheat glum blotch) and incubated in a saturated atmosphere at 20° C. for 48 h, and then moved to a growth chamber at 22° C. for 5 days, after which disease ratings were made.

[2] = system: Colletotrichum orbiculare; test: Test B: cucumber Colletotrichum anthracnose, preventive spray on cucumber seedlings
Botrytis cinerea = test: Test E: tomato botrytis, preventive spray on tomato seedlings
Rhizoctonia oryzae = test: Test G: turf brown patch, preventive spray on creeping bent grass seedlings
Description: (the causal agent of turf brown patch) and incubated in a saturated atmosphere at 27° C. for 24 h, and then moved to a growth chamber at 27° C. for 5 days, after which disease ratings were made.

[3] = system: Erysiphe graminis f. sp. tritici; test: Test L: wheat powdery mildew, preventive spray on wheat seedlings
Plasmopara viticola = test: Test D: grape downy mildew, spray after inoculation of grape seedlings; format: in vivo
Description: Upon removal, disease ratings were made. […] A dash (-) indicates no test results.

Phytophthora infestans = test: whole plant or invertebrate; format: in vivo
fusarium graminearium = test: Test I: wheat head scab, preventive spray on wheat seedlings
Description: (the causal agent of wheat head scab) and incubated in a saturated atmosphere at 20° C. for 72 h, and then moved to a growth chamber at 22° C. for 5 days, after which disease ratings were made.

SMILES	Test J disease control rating (Septoria tritici; 40 ppm (marked *))	Test C disease control rating (Sclerotinia sclerotiorum; 40 ppm (marked *))	Test K disease control rating ([1]; 40 ppm (marked *))	Test A disease control rating (Pythium aphanidermatum; 40 ppm (marked *))	Test H disease control rating (Septoria nodorum; 40 ppm (marked *))	Test B disease control rating ([2]; 40 ppm (marked *))	Test E disease control rating (Botrytis cinerea; 40 ppm (marked *))	Test G disease control rating (Rhizoctonia oryzae; 40 ppm (marked *))	Test L disease control rating ([3]; 40 ppm (marked *))	Test D disease control rating (Plasmopara viticola; 40 ppm (marked *))	Test F disease control rating (Phytophthora infestans; 40 ppm (marked *))	Test I disease control rating (fusarium graminearium; 40 ppm (marked *))	Test C disease control rating (Sclerotinia sclerotiorum; 200 ppm)	Test K disease control rating ([1]; 200 ppm)	Test A disease control rating (Pythium aphanidermatum; 200 ppm)	Test H disease control rating (Septoria nodorum; 200 ppm)	Test B disease control rating ([2]; 200 ppm)	Test E disease control rating (Botrytis cinerea; 200 ppm)	Test G disease control rating (Rhizoctonia oryzae; 200 ppm)	Test L disease control rating ([3]; 200 ppm)	further results
Cc1ccn(-c2nc(Cl)c(-c3c(F)cccc3F)n(Cc3ccccc3)c2=O)n1 [compound 279]	100* %	0* %	100* %	0* %	98* %	78* %	99* %	41* %	99* %	0* %	0* %	0* %	–	–	–	–	–	–	–	–	–
Cc1ccn(-c2nc(Cl)c(-c3c(F)cccc3F)n(Cc3ccccc3F)c2=O)n1 [compound 280]	100* %	0* %	98* %	0* %	96* %	57* %	99* %	0* %	69* %	0* %	0* %	0* %	–	–	–	–	–	–	–	–	–
CC[C@H](C)Cn1c(-c2ccc(F)cc2Cl)c(Br)nc(-n2cccn2)c1=O [compound 281]	100* %	0* %	100* %	0* %	100* %	100* %	100* %	47* %	100* %	0* %	0* %	0* %	–	–	–	–	–	–	–	–	–
CC[C@H](C)Cn1c(-c2ccc(F)cc2Cl)c(Br)nc(-n2ccc(C)n2)c1=O [compound 282]	100* %	0* %	100* %	0* %	99* %	100* %	100* %	0* %	100* %	0* %	0* %	0* %	–	–	–	–	–	–	–	–	–
CC[C@H](C)Cn1c(-c2ccc(F)cc2Cl)c(Br)nc(N2CCC=N2)c1=O [compound 283]	100* %	0* %	96* %	0* %	0* %	94* %	98* %	0* %	97* %	0* %	47* %	0* %	–	–	–	–	–	–	–	–	–
CCCCn1c(-c2ccc(F)cc2Cl)c(Br)nc(-n2cccn2)c1=O [compound 284]	100* %	0* %	95* %	0* %	99* %	0* %	94* %	0* %	96* %	0* %	16* %	0* %	–	–	–	–	–	–	–	–	–
CCCCn1c(-c2ccc(F)cc2Cl)c(Br)nc(-n2ccc(C)n2)c1=O [compound 285]	100* %	0* %	89* %	0* %	85* %	0* %	99* %	0* %	92* %	0* %	0* %	0* %	–	–	–	–	–	–	–	–	–
O=c1c(-n2cccn2)nc(Cl)c(-c2ccccc2Cl)n1Cc1ccccc1 [compound 288]	100* %	–	–	–	–	–	–	–	–	–	–	–	0%	91%	0%	100%	91%	100%	0%	91%	Test D disease control rating (Plasmopara viticola; 200 ppm): 0%; Test F disease control rating (Phytophthora infestans; 200 ppm): 0%; Test I disease control rating (fusarium graminearium; 200 ppm): 0%
Cc1ccn(-c2nc(Cl)c(C(C)C)n(CC(C)C)c2=O)n1 [compound 289]	–	–	–	–	–	–	–	–	–	–	–	–	0%	100%	0%	0%	0%	100%	95%	79%	Test J disease control rating (Septoria tritici; 200 ppm): 96%; Test D disease control rating (Plasmopara viticola; 200 ppm): 0%; Test F disease control rating (Phytophthora infestans; 200 ppm): 57%; Test I disease control rating (fusarium graminearium; 200 ppm): 0%
CC(C)Cn1c(C2CCCC2)c(Cl)nc(-n2cccn2)c1=O [compound 290]	–	–	–	–	–	–	–	–	–	–	–	–	0%	100%	0%	0%	0%	100%	77%	99%	Test J disease control rating (Septoria tritici; 200 ppm): 100%; Test D disease control rating (Plasmopara viticola; 200 ppm): 0%; Test F disease control rating (Phytophthora infestans; 200 ppm): 0%; Test I disease control rating (fusarium graminearium; 200 ppm): 0%
CC(C)Cn1c(C2CCCCC2)c(Cl)nc(-n2cccn2)c1=O [compound 291]	–	–	–	–	–	–	–	–	–	–	–	–	0%	88%	0%	0%	0%	97%	0%	71%	Test J disease control rating (Septoria tritici; 200 ppm): 100%; Test D disease control rating (Plasmopara viticola; 200 ppm): 33%; Test F disease control rating (Phytophthora infestans; 200 ppm): 0%; Test I disease control rating (fusarium graminearium; 200 ppm): 0%
CC(C)Cc1c(Cl)nc(-n2cccn2)c(=O)n1CC(C)C [compound 292]	–	–	–	–	–	–	–	–	–	–	–	–	0%	27%	0%	0%	0%	0%	0%	74%	Test J disease control rating (Septoria tritici; 200 ppm): 38%; Test D disease control rating (Plasmopara viticola; 200 ppm): 0%; Test F disease control rating (Phytophthora infestans; 200 ppm): 0%; Test I disease control rating (fusarium graminearium; 200 ppm): 0%
